Measured values taken from US4962119A, “Triazole derivatives of fenamates as antiinflammatory agents” (Warner-Lambert Company, priority 1989, dated 1990).

Tested on: 5-Lipoxygenase
Test: ARBL whole cell 5-lipoxygenase assay (inhibition of LTB4 formation in RBL-1 cells, RIA)
Type: cell-based, rat
Settings: calcium ionophore A23187 (5 μM)
Text: ARBL/ARBC Whole Cell 5-Lipoxygenase and Cyclcoxygenase Assays
Cells are harvested by centrifugation.

SMILES: FC(F)(F)c1cccc(Nc2ccccc2-c2n[nH]c(=S)[nH]2)c1 [Example 4, 5-[2-[(3-trifluoromethylphenyl)amino]phenyl]-2,4-dihydro-3H-1,2,4-triazole-3-thione]
- ARBL: % inhibition of LTB4 at 16 μM: N (Less than 40% inhibiton)
